Measured values published in patent US12454529B2, “Piperazine cyclic ureas” (SIRONAX LTD., priority 2020, dated 2025).

These molecules were tested on HT-29 cells (assay: HT-29 cell necrosis/necroptosis inhibition (TNF-α + SMAC mimetic + zVAD-FMK; CellTiter-Glo cell viability)). Settings: Homo sapiens; HT-29 cells, TNF-α 10 ng/ml + SMAC mimetic 6 μM + zVAD-FMK 10 μM, 20 hours; geometric mean, 10 points in duplicate; read-out: EC50 (Cell activity; Necrosis/Necroptosis Inhibitory Activity, Compounds 1-142).
Type: cell-based
Procedure: Compounds 1-319 (denoted as Compound Nos. 1 through 319 in Table 3 and 4) of the disclosure were tested for binding and cellular RIP1 inhibitory activity following the experimental procedures described below.
• Cell line: HT-29 (ATCC® HTB-38™) • Culture medium: McCOY's 5A, Gibco, Cat No. 16600-082 • FBS, Gibco, Cat No. 10099-141C • Trypsin: Gibco, Cat No. 25200-056 • DMSO: Sigma, Cat No. 67-68-5, 1L • Assay plate: Corning #3903 • Compound dilution plate: Corning #3357 • Inducers: TNFα, GenScript, Cat No. Z01001-50, • SmacM, Cat. No., HY-15989, MedChemExpress (MCE) • Z_VAD FMK, TargetMol, T6013 • Cell Titer-Glo® Luminescent Cell Viability Assay Kit: Promega, Cat No. G7573 • EnVision: PerkinElmer, 2105-0010 Methods Cell Seeding
1. HT-29 cells were checked every day to make sure that they were healthy and growing as expected. They were subjected to sub-culturing when they were approximately 80% confluent.
2. The culture medium, McCOY's 5A medium (Gibco, Cat No. 16600-082) with 10% fetal bovine serum or FBS (Gibco, Cat No. 10099-141C), was pre-warmed in a 37° C. water bath for at least 30 min.
3. When the cells had reached a desired level of confluency of 80% in a T75 flask, the medium was aspirated, and the cells were washed with warm phosphate buffered saline or PBS two times.
4. 2-3 ml fresh warm trypsin (Gibco, Cat No. 25200-056) solution was added to the washed cells. The flask with the cells was transferred to a 37° C. incubator.
5. After 5 minutes, the side of the flask was tapped, and the flask was examined under a microscope for detachment of the cells to the flask. If necessary, the cells were kept in the incubator for an additional 5-10 minutes, with occasional tapping, until lifting was complete.
6. The trypsin reaction was neutralized by transferring 6-9 ml cell culture medium to sterile 15 ml conical tubes, and by centrifuging the cell culture at 300×g for 7 minutes to pellet the cells (supernatant decanted).
7. The cells were resuspended in fresh cell culture medium and the cell counting was performed using a hemocytometer.
8. 100 μl of the resuspended cell culture medium containing ˜5,000 cells were transferred into each well of the sterile 96-well cell culture plate (Corning 3903) and cultured overnight at 37° C. with 5% CO2.
Compound Titration and Treatment
1. All test compounds were dissolved in DMSO (Dimethyl sulfoxide) to create a 20 mM stock.
2. 3 μl of each compound 20 mM stock was mixed with 27 μl DMSO, and the compound solution was further diluted at a titration ratio of 1:3 (20 μl compound solution+40 μl DMSO) till the 10 points end.
3. All culture medium was removed from assay plates filled with HT-29 cell cultures. The cells were then washed with 1 PBS, and resuspended in fresh, FBS-free McCOY's 5A medium containing a cocktail of TNF-α (10 ng/ml), a SMAC mimetic compound (6 μM) and Z-VAD-fluoromethylketone or zVAD-FMK (10 μM) to stimulate the HT-29 cells to increase RIP1 kinase levels and necroptosis.
4. 0.5 μL of the diluted compound solution was added to the corresponding 96-well assay plates.
5. The assay plates were incubated for 20 hours at 37° C. with 5% CO2.
1. The CellTiter-Glo® Luminescent Cell Viability Assay was employed to detect the ATP levels of viable HT-29 cells.
2. The CellTiter-Glo® buffer and the lyophilized substrate were equilibrated to room temperature prior to use.
3. The CellTiter-Glo® substrate was resuspended with CellTiter-Glo® buffer, then mixed by gently vortexing to obtain a homogeneous solution.
4. 20 μl the enzyme/substrate mixture was transferred by multi-channel pipetting into 96-well assay plates.
5. The assay plates were placed on an orbital shaker and the contents were shaken for 3 minutes to induce cell lysis.
6. The assay plates were incubated at room temperature for 10 minutes to stabilize the luminescent signal.
7. The luminescence signals were read and recorded with EnVision.
8. The geometric mean EC50 values were calculated from 10 points response dose with duplicates. In
In the case of `Cc1nn(CC(N)=O)c(C)c1-c1nc(N2CCN(C(=O)N3N=CC[C@H]3c3cc(F)cc(C#N)c3)CC2)ncc1F` [Compound 123, (S)-2-(4-(2-(4-(5-(3-cyano-5-fluorophenyl)-4,5-dihydro-1H-pyrazole-1-carbonyl)piperazin-1-yl)-5-fluoropyrimidin-4-yl)-3,5-dimethyl-1H-pyrazol-1-yl)acetamide], the EC50 is reported as 0.0001 to 0.1 µM.
`Cc1nc(C)c(-c2nc(N3CCN(C(=O)N4N=CC[C@H]4c4cc(F)cc(F)c4)CC3)ncc2F)s1` [Compound 55, (S)-(5-(3,5-difluorophenyl)-4,5-dihydro-1H-pyrazol-1-yl)(4-(4-(2,4-dimethylthiazol-5-yl)-5-fluoropyrimidin-2-yl)piperazin-1-yl)methanone] gave an EC50 of 0.0001 to 0.1 µM.
With `O=C(N1CCN(c2nccc(C3=NCCN3)n2)CC1)N1N=CC[C@H]1c1cc(F)cc(F)c1` [Compound 3, (S)-(5-(3,5-difluorophenyl)-4,5-dihydro-1H-pyrazol-1-yl)(4-(4-(4,5-dihydro-1H-imidazol-2-yl)pyrimidin-2-yl)piperazin-1-yl)methanone] the EC50 was 0.0001 to 0.1 µM.
`N#Cc1cc(F)cc([C@@H]2CC=NN2C(=O)N2CCN(c3ncc(F)c(-c4ncc[nH]4)n3)CC2)c1` [Compound 112, (S)-3-fluoro-5-(1-(4-(5-fluoro-4-(1H-imidazol-2-yl)pyrimidin-2-yl)piperazine-1-carbonyl)-4,5-dihydro-1H-pyrazol-5-yl)benzonitrile] was tested, and the EC50 was 0.0001 to 0.1 µM.
Work on `Cc1nnnn1-c1nc(N2CCN(C(=O)N3N=CC[C@H]3c3cc(F)cc(F)c3)CC2)ncc1F` [Compound 23, (S)-(5-(3,5-difluorophenyl)-4,5-dihydro-1H-pyrazol-1-yl)(4-(5-fluoro-4-(5-methyl-1H-tetrazol-1-yl)pyrimidin-2-yl)piperazin-1-yl)methanone] yielded an EC50 of 0.0001 to 0.1 µM.
Work on `CCn1c(C)nn(-c2nc(N3CCN(C(=O)N4N=CC[C@H]4c4cc(F)cc(F)c4)CC3)ncc2F)c1=O` [Compound 98, (S)-2-(2-(4-(5-(3,5-difluorophenyl)-4,5-dihydro-1H-pyrazole-1-carbonyl)piperazin-1-yl)-5-fluoropyrimidin-4-yl)-4-ethyl-5-methyl-2,4-dihydro-3H-1,2,4-triazol-3-one] yielded an EC50 of 0.0001 to 0.1 µM.
`Cc1ncc(-c2nc(N3CCN(C(=O)N4N=CC[C@H]4c4cc(F)cc(F)c4)CC3)ncc2F)s1` [Compound 56, (S)-(5-(3,5-difluorophenyl)-4,5-dihydro-1H-pyrazol-1-yl)(4-(5-fluoro-4-(2-methylthiazol-5-yl)pyrimidin-2-yl)piperazin-1-yl)methanone] showed an EC50 of 0.0001 to 0.1 µM.
`Cn1ncc(-c2nc(N3CCN(C(=O)N4N=CC[C@H]4c4cc(F)cc(C#N)c4)CC3)ncc2F)n1` [Compound 42] gave an EC50 of 0.0001 to 0.1 µM.
In the case of `N#Cc1cc(F)cc([C@@H]2CC=NN2C(=O)N2CCN(c3ncc(F)c(-c4cc[nH]n4)n3)CC2)c1` [Compound 22, (S)-3-fluoro-5-(1-(4-(5-fluoro-4-(1H-pyrazol-3-yl)pyrimidin-2-yl)piperazine-1-carbonyl)-4,5-dihydro-1H-pyrazol-5-yl)benzonitrile], the EC50 is reported as 0.0001 to 0.1 µM.

Same assay, conditions: Homo sapiens; HT-29 cells, TNF-α 10 ng/ml + SMAC mimetic 6 μM + zVAD-FMK 10 μM, 20 hours; geometric mean, 10 points in duplicate; read-out: EC50 (Cell activity; Necrosis/Necroptosis Inhibitory Activity, Compounds 143-323)
`Cc1c(N)nn(C)c1-c1nc(N2CCN(C(=O)N3N=CC[C@H]3c3cc(F)cc(F)c3)CC2)ncc1F` [Compound 155, (S)-(4-(4-(3-amino-1,4-dimethyl-1H-pyrazol-5-yl)-5-fluoropyrimidinyl)piperazin-1-yl)(5-(3,5-difluorophenyl)-4,5-dihydro-1H-pyrazol-1-yl)methanone] showed an EC50 of 0.0001 to 0.1 µM.
For `N#Cc1cc(F)cc([C@@H]2CC=NN2C(=O)N2CCN(c3ncc(F)c(-n4nccc4C(F)(F)F)n3)CC2)c1` [Compound 304, (S)-3-fluoro-5-(1-(4-(5-fluoro-4-(5-(trifluoromethyl)-1H-pyrazol-1-yl)pyrimidin-2-yl)piperazine-1-carbonyl)-4,5-dihydro-1H-pyrazol-5-yl)benzonitrile], the EC50 was 0.0001 to 0.1 µM.
For `O=C(N1CCN(c2ncc(F)c(-n3nccc3C(F)(F)F)n2)CC1)N1N=CC[C@H]1c1cc(F)cc(F)c1` [Compound 315, (S)-(5-(3,5-difluorophenyl)-4,5-dihydro-1H-pyrazol-1-yl)(4-(5-fluoro-4-(5-(trifluoromethyl)-1H-pyrazol-1-yl)pyrimidin-2-yl)piperazin-1-yl)methanone], the EC50 was 0.0001 to 0.1 µM.
`Cc1nc(C(F)F)nn1-c1nc(N2CCN(C(=O)N3N=CC[C@H]3c3cc(F)cc(C#N)c3)CC2)ncc1F` [Compound 245, (S)-3-(1-(4-(4-(3-(difluoromethyl)-5-methyl-1H-1,2,4-triazol-1-yl)-5-fluoropyrimidinyl)piperazine-1-carbonyl)-4,5-dihydro-1H-pyrazol-5-yl)-5-fluorobenzonitrile] was tested, and the EC50 was 0.0001 to 0.1 µM.
`Cn1nc(CF)nc1-c1nc(N2CCN(C(=O)N3N=CC[C@H]3c3cc(F)cc(C#N)c3)CC2)ncc1F` [Compound 170, (S)-3-fluoro-5-(1-(4-(5-fluoro-4-(3-(fluoromethyl)-1-methyl-1H-1,2,4-triazol-5-yl)pyrimidin-2-yl)piperazine-1-carbonyl)-4,5-dihydro-1H-pyrazol-5-yl)benzonitrile] was tested, and the EC50 was 0.0001 to 0.1 µM.
`N#Cc1cc(F)cc([C@@H]2CC=NN2C(=O)N2CCN(c3nc(-n4cc(C#N)cn4)ncc3F)CC2)c1` [Compound 219, (S)-1-(4-(4-(5-(3-cyano-5-fluorophenyl)-4,5-dihydro-1H-pyrazole-1-carbonyl)piperazin-1-yl)-5-fluoropyrimidin-2-yl)-1H-pyrazole-4-carbonitrile] showed an EC50 of 0.0001 to 0.1 µM.
Work on `Cc1nc(CO)nn1-c1nc(N2CCN(C(=O)N3N=CC[C@H]3c3cncc(F)c3)CC2)ncc1F` [Compound 250, (S)-(4-(5-fluoro-4-(3-(hydroxymethyl)-5-methyl-1H-1,2,4-triazol-1-yl)pyrimidin-2-yl)piperazin-1-yl)(5-(5-fluoropyridin-3-yl)-4,5-dihydro-1H-pyrazol-1-yl)methanone] yielded an EC50 of 0.0001 to 0.1 µM.
Work on `Cc1nn(-c2cc(N3CCN(C(=O)N4N=CC[C@H]4c4cc(F)cc(C#N)c4)CC3)ncn2)c(C)c1Br` [Compound 278, (S)-3-(1-(4-(6-(4-bromo-3,5-dimethyl-1H-pyrazol-1-yl)pyrimidin-4-yl)piperazine-1-carbonyl)-4,5-dihydro-1H-pyrazol-5-yl)-5-fluorobenzonitrile] yielded an EC50 of 0.0001 to 0.1 µM.
Molecule `Cn1cnnc1-c1nc(N2CCN(C(=O)N3N=CC[C@H]3c3cc(F)cc(C#N)c3)CC2)ncc1F` [Compound 197, (S)-3-fluoro-5-(1-(4-(5-fluoro-4-(4-methyl-4H-1,2,4-triazol-3-yl)pyrimidin-2-yl)piperazine-1-carbonyl)-4,5-dihydro-1H-pyrazol-5-yl)benzonitrile] has an EC50 of 1 to 10 µM.
For `Cc1nc(C)n(-c2nc(N3CCN(C(=O)N4N=CCC4c4csc(C)n4)CC3)ncc2Cl)n1` (centres unmarked) [Compound 224, (4-(5-chloro-4-(3,5-dimethyl-1H-1,2,4-triazol-1-yl)pyrimidin-2-yl)piperazin-1-yl)(5-(2-methylthiazol-4-yl)-4,5-dihydro-1H-pyrazol-1-yl)methanone], the EC50 was 0.1 to 1 µM.
Work on `Cc1nc(C2CC=NN2C(=O)N2CCN(c3cc(-c4c(C)cnn4C)ncc3F)CC2)cs1` (centres unmarked) [Compound 156, (4-(2-(1,4-dimethyl-1H-pyrazol-5-yl)-5-fluoropyridin-4-yl)piperazin-1-yl)(5-(2-methylthiazol-4-yl)-4,5-dihydro-1H-pyrazol-1-yl)methanone] yielded an EC50 of 0.1 to 1 µM.
